Like-named read-outs stand apart in the source and are kept apart here.
How the values were obtained:
[1] = target: norepinephrine transporter (NET) (Rattus norvegicus, UniProt Q9WTR4); assay: Norepinephrine reuptake ([^3H]norepinephrine uptake) inhibition in rat brain synaptosomes; settings: for NE Uptake Emax (% I ± SD): maximal inhibition from dose-response fit
Procedure: Freshly removed whole brain minus cerebellum and caudate was homogenized in 10% ice-cold sucrose with 12 strokes of a hand-held Potter-Elvehjem homogenizer followed by centrifugation at 1000×g for 10 minutes. The supernatants were saved on ice and used immediately. Transporter activity at NET was assessed using 10 nM [^3H]norepinephrine. […] Uptake inhibition assays were conducted at 37° C. and were initiated by adding 100 μL of tissue to 900 μL assay buffer containing test drug and [^3H]norepinephrine. Test drugs were diluted in assay buffer containing 1 mg/mL bovine serum albumin. Nonspecific uptake was measured by incubating in the presence of 10 μM indatraline. The reactions were stopped after 10 minutes by rapid vacuum filtration with a cell harvester (BRANDEL) over GF/B filters (Whatman) presoaked in wash buffer maintained at 25° C. (10 mM Tris-HCl, pH 7.4/150 mM NaCl). Filters were rinsed with 6 mL wash buffer and retained tritium was quantified by a MicroBeta liquid scintillation counter (PerkinElmer) after overnight extraction in 0.6 mL of liquid scintillation cocktail (Cytoscint, ICN). The data from three experiments were pooled and fit to a dose-response curve equation (using Kaleidagraph), to yield an Emax and EC50 value.
The data from three experiments were pooled and fit to a dose-response curve equation (using KaleidaGraph; Synergy Software, Reading, Pa.) to yield an Emax and IC50 value.

[2] = target: dopamine transporter (DAT) (Rattus norvegicus, UniProt P23977); assay: Dopamine reuptake ([^3H]dopamine uptake) inhibition in rat brain synaptosomes
[3] = target: T1, serotonin transporter (SERT) (Rattus norvegicus, UniProt P31652); assay: Serotonin reuptake ([^3H]serotonin uptake) inhibition in rat brain synaptosomes; format: biochemical
T1 construct: Freshly removed whole brain minus cerebellum and caudate was homogenized; from tissue; host or cells: rat whole brain minus cerebellum and caudate, synaptosomes

DAT = target: T2, DAT (Rattus norvegicus, UniProt P23977); assay: Dopamine transporter binding, inhibition of [^3H]WIN35428 binding in rat caudate membranes; settings: 2 h; read-out: DAT Binding εmax
T2 construct: from tissue; host or cells: rat caudate membranes
Procedure: The ability of test drugs to inhibit [^3H]WIN35428 binding to DAT in rat caudate membranes was assessed as follows. For each experiment, caudates from four rat brains were suspended in 15 mL ice cold assay buffer (50 mM sodium phosphate pH 7.4) and homogenized using a polytron (setting 6, 20 sec). The homogenate was centrifuged at 30,000×g for 10 minutes at 4° C. The pellet was resuspended with vigorous vortexing in 15 mL fresh ice cold assay buffer, and the centrifugation was repeated. The pellet was resuspended in 15 mL fresh ice cold assay buffer with vigorous vortexing followed by six strokes with a glass-on-glass hand-held homogenizer and was diluted to a final volume of 235 mL in ice cold assay buffer. [^3H]WIN35428 was diluted to 10 nM in assay buffer that contained 25 μg/mL chymostatin, 25 μg/mL leupeptin, 0.1 mM EDTA, and 0.1 mM EGTA. Each assay tube contained 0.75 mL membrane preparation, 0.15 mL test drug diluted in assay buffer containing 1 mg/mL bovine serum albumin, and 0.1 mL [^3H]WIN35428 preparation (final concentration of 1 nM). Assays were initiated by the addition of membranes and were terminated after 2 hours at 25° C. by rapid vacuum filtration. Retained tritium was measured as described. The data from three experiments were pooled and fit to a dose-response curve equation (using Kaleidagraph), to yield an Emax and EC50 value.

[4] = read-out: NET Uptake IC50, mean ± S.D., n = 3
[5] = DAT Uptake IC50, [3H]DA uptake inhibition, mean ± S.D., n = 3
[6] = mean ± S.D., n = 3, read-out: SERT Uptake IC50
[7] = rat brain synaptosomes, 10 nM [^3H]norepinephrine
[8] = read-out: NE Uptake EC50 (nM ± SD), rat brain synaptosomes, 10 nM [^3H]norepinephrine, 10 min, 37° C.
[9] = mean ± S.D., n = 3, read-out: SERT Uptake Emax
[10] = DA Uptake EC50 (nM ± SD), rat caudate synaptosomes, 5 nM [^3H]dopamine, 15 min, 25° C., three experiments pooled
[11] = read-out: DA Uptake Emax (% I ± SD)

T1 sequence (P31652 whole entry): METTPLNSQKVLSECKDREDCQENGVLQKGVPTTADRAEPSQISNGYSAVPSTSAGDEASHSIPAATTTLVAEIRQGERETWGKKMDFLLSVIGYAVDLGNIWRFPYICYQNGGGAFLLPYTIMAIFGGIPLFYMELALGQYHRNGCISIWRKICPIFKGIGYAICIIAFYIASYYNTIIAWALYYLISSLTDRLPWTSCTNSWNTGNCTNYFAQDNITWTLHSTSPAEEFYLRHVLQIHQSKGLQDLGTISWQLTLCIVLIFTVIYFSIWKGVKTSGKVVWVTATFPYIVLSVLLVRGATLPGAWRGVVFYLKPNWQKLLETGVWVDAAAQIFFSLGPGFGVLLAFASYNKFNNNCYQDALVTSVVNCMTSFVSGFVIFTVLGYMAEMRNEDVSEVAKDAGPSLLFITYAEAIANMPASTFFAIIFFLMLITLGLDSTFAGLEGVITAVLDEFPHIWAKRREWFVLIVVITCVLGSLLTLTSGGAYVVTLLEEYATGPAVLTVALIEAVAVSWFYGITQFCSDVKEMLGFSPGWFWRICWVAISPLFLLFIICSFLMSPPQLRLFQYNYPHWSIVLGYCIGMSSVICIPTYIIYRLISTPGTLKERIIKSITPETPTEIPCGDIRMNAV
T2 sequence (P23977 whole entry): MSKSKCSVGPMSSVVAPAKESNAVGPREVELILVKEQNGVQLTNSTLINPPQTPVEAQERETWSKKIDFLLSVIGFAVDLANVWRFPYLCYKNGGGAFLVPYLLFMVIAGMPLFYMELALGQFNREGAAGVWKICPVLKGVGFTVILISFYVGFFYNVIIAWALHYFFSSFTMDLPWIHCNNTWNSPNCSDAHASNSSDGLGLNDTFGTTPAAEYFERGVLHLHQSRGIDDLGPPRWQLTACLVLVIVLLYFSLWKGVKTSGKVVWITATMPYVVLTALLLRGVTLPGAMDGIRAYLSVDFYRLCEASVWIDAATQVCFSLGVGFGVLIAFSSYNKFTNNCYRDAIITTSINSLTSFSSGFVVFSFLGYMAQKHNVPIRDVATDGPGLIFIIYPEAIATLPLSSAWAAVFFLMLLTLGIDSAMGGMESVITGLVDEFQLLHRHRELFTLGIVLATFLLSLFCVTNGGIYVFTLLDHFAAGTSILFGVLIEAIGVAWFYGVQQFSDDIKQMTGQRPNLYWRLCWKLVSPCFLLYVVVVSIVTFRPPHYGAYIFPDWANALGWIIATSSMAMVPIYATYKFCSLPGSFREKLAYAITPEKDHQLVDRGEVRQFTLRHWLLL
dopamine transporter (DAT), sequence (P23977 whole entry): as above

SMILES	NET Uptake Emax ([1]; mean ± S.D., n = 3) [%]	IC50 [1, 4] [nM]	IC50 [3, 6] [nM]	IC50 [2, 10] [nM]	Emax [2, 11] [%]	melting point [°C]	other results
CS(=O)(=O)Nc1ccc(-c2nc(NCC(O)(c3ccccc3)c3ccccc3)c3ccccc3n2)cc1 [SRI-30504]	70 ± 2	426 ± 49	50 ± 14				IC50 [2, 5]: 11 ± 2 nM; Emax (DAT): 47 ± 7%
CS(=O)(=O)Nc1ccc(-c2nc(NCC(c3ccccc3)c3ccncc3)c3ccccc3n2)cc1 (centres unmarked) [SRI-30524]	76 ± 2	44 ± 6	8.7 ± 0.9				
Cc1cc(NS(C)(=O)=O)ccc1-c1nc(NCC(c2ccccc2)c2ccccc2)c2ccccc2n1 [SRI-30828]	65 ± 3	144 ± 30	20 ± 5				IC50 [2, 5]: 8.9 ± 1.6 nM; Emax (DAT): 60 ± 7%
Cc1cc(NS(C)(=O)=O)ccc1-c1nc(NCC(c2ccccc2)c2ccncc2)c2ccccc2n1 (centres unmarked) [SRI-31039]	71 ± 3	31 ± 7	8 ± 2.8				IC50 [2, 5]: 7.4 ± 2 nM; Emax (DAT): 72 ± 7%
CS(=O)(=O)Nc1ccc(-c2nc(NCC(c3ccccc3)c3ccccc3)c3ccccc3n2)c(Cl)c1 [SRI-31043]	67 ± 2	47 ± 10	22 ± 5				IC50 [2, 5]: 11 ± 1 nM; Emax (DAT): 30 ± 3%
COC(=O)[C@H]1[C@@H](OC(=O)c2ccccc2)C[C@@H]2CC[C@H]1N2C [cocaine, reference compound]	102 ± 2						Emax ([2]; read-out: DAT Uptake Emax): 100 ± 2%; Emax ([3]; read-out: SERT Uptake Emax): 98 ± 2%
CSc1ncc(-c2nc(NCC(c3ccccc3)c3ccccc3)c3ccccc3n2)cn1 [compound 30, N-(2,2-Diphenylethyl)-2-(2-(Methylthio)Pyrimidin-5-yl)Quinazolin-4-Amine]	62 ± 3	204 ± 47	56 ± 21				NE Uptake Emax (% I ± SD) [1, 7]: 62 ± 3 % I; IC50 [1, 8]: 204 ± 47 nM; IC50 [2, 5]: 9 ± 1.5 nM; Emax ([2]; read-out: DAT Uptake Emax): 71 ± 2%; Emax [3, 9]: 52 ± 3%; Emax (DAT): 63 ± 4%
CNc1ncc(-c2nc(NCC(c3ccccc3)c3ccccc3)c3ccccc3n2)cn1 [compound 41, N-(2,2-Diphenylethyl)-2-(2-(Methylamino)Pyrimidin-5-yl)Quinazolin-4-Amine]	78 ± 2	179 ± 27	57 ± 18				NE Uptake Emax (% I ± SD) [1, 7]: 78 ± 2 % I; IC50 [1, 8]: 179 ± 27 nM; IC50 [2, 5]: 11 ± 1 nM; Emax ([2]; read-out: DAT Uptake Emax): 71 ± 1%; Emax [3, 9]: 60 ± 3%; Emax (DAT): 59 ± 6%
Cn1cc2cc(-c3nc(NCC(c4ccccc4)c4ccccc4)c4ccccc4n3)ccc2n1 [compound 66, N-(2,2-Diphenylethyl)-2-(2-Methyl-2H-Indazol-5-yl)Quinazolin-4-Amine]	71 ± 3	229 ± 43	106 ± 19				NE Uptake Emax (% I ± SD) [1, 7]: 71 ± 3 % I; IC50 [1, 8]: 229 ± 43 nM; IC50 [2, 5]: 19 ± 4 nM; Emax ([2]; read-out: DAT Uptake Emax): 69 ± 2%; Emax [3, 9]: 61 ± 2%; Emax (DAT): 58 ± 3%
OC(CNc1nc(-c2ccc3nccn3c2)nc2ccccc12)(c1ccccc1)c1ccccc1 [compound 96, 2-((2-(Imidazo[1,2-A]Pyridin-6-yl)Quinazolin-4-yl)Amino)-1,1-Diphenylethanol]				9.2 ± 1.2	70 ± 1		NE Uptake Emax (% I ± SD) [1, 7]: 65 ± 3 % I; IC50 [1, 8]: 98 ± 23 nM; IC50 ([3]; rat brain synaptosomes, 5 nM [^3H]serotonin, 30 min, 25° C., read-out: 5HT Uptake EC50 (nM ± SD)): 16 ± 5 nM; Emax ([3]; rat brain synaptosomes, 5 nM [^3H]serotonin, maximal inhibition from dose-response fit, read-out: 5HT Uptake Emax (% I ± SD)): 55 ± 2%
Cc1cc2nccn2cc1-c1nc(NCCc2cccnc2)c2ccccc2n1 [compound 180, 2-(7-Methylimidazo[1,2-A]Pyridin-6-yl)-N-(2-(Pyridin-3-yl)Ethyl)Quinazolin-4-Amine]				252 ± 22	73 ± 1	241 to 244	
Cc1cc2nccn2cc1-c1nc(NCCc2ccncc2)c2ccccc2n1 [compound 181, 2-(7-Methylimidazo[1,2-A]Pyridin-6-yl)-N-(2-(Pyridin-4-yl)Ethyl)Quinazolin-4-Amine]				85 ± 5	72 ± 1	234 to 236	
Cc1cc2nccn2cc1-c1nc(NCC(Cc2ccccc2)Cc2ccccc2)c2ccccc2n1 [compound 182, N-(2-Benzyl-3-Phenylpropyl)-2-(7-Methylimidazo[1,2-A]Pyridin-6-yl)Quinazolin-4-Amine]				8.3 ± 0.9	75 ± 1	181 to 184	
Cc1cc2nccn2cc1-c1nc(NCCc2ccccn2)c2ccccc2n1 [compound 183, (7-Methylimidazo[1,2-A]Pyridin-6-yl)-N-(2-(Pyridin-2-yl)Ethyl)Quinazolin-4-Amine]				912 ± 195	77 ± 4	224 to 228	
Cc1cc2nccn2cc1-c1nc(NCC(C)c2ccccc2)c2ccccc2n1 (centres unmarked) [compound 184, 2-(7-Methylimidazo[1,2-A]Pyridin-6-yl)-N-(2-Phenylpropyl)Quinazolin-4-Amine]				5.3 ± 2	81 ± 4	208 to 212	
Cc1cc2nccn2cc1-c1nc(NCC(c2ccncc2)c2ccc[nH]2)c2ccccc2n1 (centres unmarked) [compound 185, 2-(7-Methylimidazo[1,2-A]Pyridin-6-yl)-N-(2-(Pyridin-4-yl)-2-(1H-Pyrrol-2-yl)Ethyl)Quinazolin-4-Amine]				11 ± 2	71 ± 2	214 to 216	
Cc1cc2nccn2cc1-c1nc(NCC(O)c2ccccc2)c2ccccc2n1 (centres unmarked) [compound 186]				14 ± 3	74 ± 2	221 to 224	
COC(CNc1nc(-c2cn3ccnc3cc2C)nc2ccccc12)c1ccccc1 (centres unmarked) [compound 187, N-(2-Methoxy-2-phenylethyl)-2-(7-methylimidazo[1,2-a]pyridin-6-yl)quinazolin-4-amine]				5.7 ± 1.6	74 ± 3	215 to 218	
CCC(CNc1nc(-c2cn3ccnc3cc2C)nc2ccccc12)c1ccccc1 (centres unmarked) [compound 188, 2-(7-Methylimidazo[1,2-A]Pyridin-6-yl)-N-(2-Phenylbutyl)Quinazolin-4-Amine]				1.4 ± 0.2	75 ± 2	232 to 234	
c1ccc(C(CNc2nc(N3Cc4ccccc4C3)nc3ccccc23)c2ccccc2)cc1 [compound 189, N-(2,2-Diphenylethyl)-2-(Isoindolin-2-yl)Quinazolin-4-Amine]				24 ± 7	83 ± 4	293 to 295	
c1ccc(C(CNc2nc(N3CCc4c([nH]c5ccccc45)C3)nc3ccccc23)c2ccccc2)cc1 [compound 190, 2-(3,4-Dihydro-1H-Pyrido[3,4-B]Indol-2(9H)-yl)-N-(2,2-Diphenylethyl)Quinazolin-4-Amine]				6.9 ± 2	80 ± 3	185 to 187	
c1ccc(C(CNc2nc(N3CCc4[nH]c5ccccc5c4C3)nc3ccccc23)c2ccccc2)cc1 [compound 191, 2-(3,4-Dihydro-1H-Pyrido[4,3-B]Indol-2(5H)-yl)-N-(2,2-Diphenylethyl)Quinazolin-4-Amine]				16 ± 3	78 ± 2	258 to 260	
Cc1cc2nccn2cc1-c1nc(NCC(CN(C)C)c2ccccc2)c2ccccc2n1 (centres unmarked) [compound 192, N1,N1-Dimethyl-N3-(2-(7-Methylimidazo[1,2-A]Pyridin-6-yl)Quinazolin-4-yl)-2-Phenylpropane-1,3-Diamine]				10 ± 3	77 ± 4	250 to 252	
c1ccc(C(CNc2nc(N3CCc4ccccc4C3)nc3ccccc23)c2ccccc2)cc1 [compound 193, 2-(3,4-Dihydroisoquinolin-2(1H)-yl)-N-(2,2-Diphenylethyl)Quinazolin-4-Amine]				1.7 ± 0.4	77 ± 3	250 to 253	
CC(C)C(CNc1nc(N2CCc3[nH]ccc3C2)nc2ccccc12)c1ccccc1 (centres unmarked) [compound 201, 2-(6,7-Dihydro-1H-Pyrrolo[3,2-c]Pyridin-5(4H)-yl)-N-(3-Methyl-2-Phenylbutyl)Quinazolin-4-Amine]				7.2 ± 2.6	88 ± 5	221 to 223	
c1ccc(CCNc2nc(N3CCc4[nH]ccc4C3)nc3ccccc23)cc1 [compound 202, 2-(6,7-Dihydro-1H-Pyrrolo[3,2-c]Pyridin-5(4H)-yl)-N-Phenethylquinazolin-4-Amine]				94 ± 18	100 ± 3	161 to 163	

— US9873702B2, “Heterocyclic compounds as biogenic amine transport modulators” (Southern Research Institute, priority 2014, dated 2018)
